Data from paper PMC10794144, “A novel antibiotic class targeting the lipopolysaccharide transporter” (Nature, 2024).
Read-outs that look alike come from different tables or passages of the source.

How the values were obtained:
Test in all cases: Off-target screening (CEREP)
Assay type in all cases: binding
Details in all cases: read-out: percent inhibition
[1] = molecular target: T1, Norepinephrine transporter (Homo sapiens, UniProt P23975)
T1 construct: purchased Eurofins CEREP SA
Method: (§1) Supplementary Table 1 │ Off-target activity screening f or MCP compou nds […]
(§2) The assays given in the table above were conducted at Eurofins CEREP S A (Celle-Lévescault, France) and were run as single point measurements in duplicates in the presence of 10 µ M of the test compound and reported as percent inhibition of the radioligand signal or control enzymatic activity. n.d., not

Prostaglandin F receptor = molecular target: T2, Prostaglandin F receptor (Homo sapiens, UniProt P43088)
T2 construct: purchased Eurofins CEREP SA
Method: as §1, §2

Estrogen receptor alpha = molecular target: T3, Estrogen receptor alpha (Homo sapiens, UniProt P03372)
T3 construct: purchased Eurofins CEREP SA
Method: as §1, §2

5HT2B = molecular target: T4, 5HT2B (Homo sapiens, UniProt P41595)
T4 construct: purchased Eurofins CEREP SA
Method: as §1, §2

Glucocorticoid receptor = molecular target: T5, Glucocorticoid receptor (Homo sapiens, UniProt P04150)
T5 construct: purchased Eurofins CEREP SA
T5 sequence (P04150 1-777): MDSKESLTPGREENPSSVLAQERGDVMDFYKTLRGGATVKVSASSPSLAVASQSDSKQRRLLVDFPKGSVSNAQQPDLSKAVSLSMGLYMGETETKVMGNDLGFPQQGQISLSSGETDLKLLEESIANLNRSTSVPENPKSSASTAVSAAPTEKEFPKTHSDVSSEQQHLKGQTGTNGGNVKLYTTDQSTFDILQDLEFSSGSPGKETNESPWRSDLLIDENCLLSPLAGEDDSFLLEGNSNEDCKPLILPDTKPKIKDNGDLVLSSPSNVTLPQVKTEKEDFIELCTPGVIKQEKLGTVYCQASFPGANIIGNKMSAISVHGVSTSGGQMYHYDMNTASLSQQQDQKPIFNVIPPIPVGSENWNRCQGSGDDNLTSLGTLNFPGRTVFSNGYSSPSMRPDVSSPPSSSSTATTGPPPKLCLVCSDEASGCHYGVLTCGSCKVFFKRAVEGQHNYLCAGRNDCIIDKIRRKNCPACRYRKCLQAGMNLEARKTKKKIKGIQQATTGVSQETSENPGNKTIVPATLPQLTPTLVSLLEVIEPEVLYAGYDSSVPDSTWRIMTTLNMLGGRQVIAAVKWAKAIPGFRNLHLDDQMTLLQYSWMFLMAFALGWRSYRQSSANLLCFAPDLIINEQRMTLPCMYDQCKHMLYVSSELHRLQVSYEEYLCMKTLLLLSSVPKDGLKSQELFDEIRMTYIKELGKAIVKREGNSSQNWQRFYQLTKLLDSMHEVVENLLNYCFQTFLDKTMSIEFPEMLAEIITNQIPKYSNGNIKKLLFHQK
Method: as §1, §2

Muscarinic receptor M1 = molecular target: T6, Muscarinic receptor M1 (Homo sapiens, UniProt P11229)
T6 construct: purchased Eurofins CEREP SA
T6 sequence (P11229 1-460): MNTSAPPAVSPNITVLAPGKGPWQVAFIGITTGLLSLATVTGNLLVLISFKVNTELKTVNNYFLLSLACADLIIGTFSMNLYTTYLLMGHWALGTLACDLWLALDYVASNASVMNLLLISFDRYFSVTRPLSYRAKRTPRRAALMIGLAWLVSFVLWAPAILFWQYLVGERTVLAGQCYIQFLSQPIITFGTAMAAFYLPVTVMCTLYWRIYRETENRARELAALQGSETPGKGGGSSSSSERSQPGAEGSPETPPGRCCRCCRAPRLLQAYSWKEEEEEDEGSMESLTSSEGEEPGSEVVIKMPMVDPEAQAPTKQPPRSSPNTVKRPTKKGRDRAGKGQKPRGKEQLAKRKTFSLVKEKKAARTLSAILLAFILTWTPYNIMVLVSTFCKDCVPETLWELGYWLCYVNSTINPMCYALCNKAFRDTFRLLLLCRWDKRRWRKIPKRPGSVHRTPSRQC
Method: as §1, §2

5HT2A = molecular target: T7, 5HT2A (Homo sapiens, UniProt P28223)
T7 construct: purchased Eurofins CEREP SA
Method: as §1, §2

Muscarinic receptor M2 = molecular target: T8, Muscarinic receptor M2 (Homo sapiens, UniProt P08172)
T8 construct: purchased Eurofins CEREP SA
T8 sequence (P08172 1-466): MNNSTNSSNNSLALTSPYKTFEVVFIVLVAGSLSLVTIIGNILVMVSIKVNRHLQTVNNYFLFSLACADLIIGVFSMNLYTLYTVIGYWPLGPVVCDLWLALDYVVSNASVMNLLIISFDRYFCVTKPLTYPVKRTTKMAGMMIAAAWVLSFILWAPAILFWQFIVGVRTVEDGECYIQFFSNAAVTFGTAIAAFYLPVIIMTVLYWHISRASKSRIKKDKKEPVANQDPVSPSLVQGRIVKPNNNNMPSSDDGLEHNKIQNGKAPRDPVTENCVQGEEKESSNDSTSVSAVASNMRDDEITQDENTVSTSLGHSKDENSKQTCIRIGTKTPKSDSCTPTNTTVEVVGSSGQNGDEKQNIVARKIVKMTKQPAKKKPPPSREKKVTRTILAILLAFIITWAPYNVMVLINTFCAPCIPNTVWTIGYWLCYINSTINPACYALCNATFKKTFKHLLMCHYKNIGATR
Method: as §1, §2

Beta1-adrenoreceptor = molecular target: T9, Beta1-adrenoreceptor (Homo sapiens, UniProt P08588)
T9 construct: purchased Eurofins CEREP SA
Method: as §1, §2

Adenosine A3 respetor = molecular target: T10, Adenosine A3 respetor (Homo sapiens, UniProt P0DMS8)
T10 construct: purchased Eurofins CEREP SA
T10 sequence (P0DMS8 1-318): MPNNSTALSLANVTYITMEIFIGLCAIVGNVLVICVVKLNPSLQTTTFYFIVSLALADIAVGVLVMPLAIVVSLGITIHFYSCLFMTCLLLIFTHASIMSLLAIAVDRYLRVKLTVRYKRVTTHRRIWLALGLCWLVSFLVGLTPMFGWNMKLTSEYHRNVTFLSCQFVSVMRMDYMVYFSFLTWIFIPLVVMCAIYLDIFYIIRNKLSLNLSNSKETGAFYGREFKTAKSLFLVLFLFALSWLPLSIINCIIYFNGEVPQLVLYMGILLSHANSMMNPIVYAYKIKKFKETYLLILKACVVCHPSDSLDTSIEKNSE
Method: as §1, §2

[2] = molecular target: Glycine receptor, strychnine insensitive (Rattus norvegicus, UniProt P35439)
Method: as §1, §2

T4 sequence (P41595 whole entry): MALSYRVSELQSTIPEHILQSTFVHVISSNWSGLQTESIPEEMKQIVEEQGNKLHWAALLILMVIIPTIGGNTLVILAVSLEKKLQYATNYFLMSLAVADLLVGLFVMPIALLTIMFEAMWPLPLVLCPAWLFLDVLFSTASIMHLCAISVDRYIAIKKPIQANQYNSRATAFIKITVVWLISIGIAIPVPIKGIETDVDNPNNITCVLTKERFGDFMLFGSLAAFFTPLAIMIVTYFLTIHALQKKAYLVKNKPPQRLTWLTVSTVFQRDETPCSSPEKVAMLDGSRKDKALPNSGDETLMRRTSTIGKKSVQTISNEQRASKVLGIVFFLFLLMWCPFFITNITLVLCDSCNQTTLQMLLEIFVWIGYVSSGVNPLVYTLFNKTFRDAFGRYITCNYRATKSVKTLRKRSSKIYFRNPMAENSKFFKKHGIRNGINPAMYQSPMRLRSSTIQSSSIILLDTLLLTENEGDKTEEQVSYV
T7 sequence (P28223 whole entry): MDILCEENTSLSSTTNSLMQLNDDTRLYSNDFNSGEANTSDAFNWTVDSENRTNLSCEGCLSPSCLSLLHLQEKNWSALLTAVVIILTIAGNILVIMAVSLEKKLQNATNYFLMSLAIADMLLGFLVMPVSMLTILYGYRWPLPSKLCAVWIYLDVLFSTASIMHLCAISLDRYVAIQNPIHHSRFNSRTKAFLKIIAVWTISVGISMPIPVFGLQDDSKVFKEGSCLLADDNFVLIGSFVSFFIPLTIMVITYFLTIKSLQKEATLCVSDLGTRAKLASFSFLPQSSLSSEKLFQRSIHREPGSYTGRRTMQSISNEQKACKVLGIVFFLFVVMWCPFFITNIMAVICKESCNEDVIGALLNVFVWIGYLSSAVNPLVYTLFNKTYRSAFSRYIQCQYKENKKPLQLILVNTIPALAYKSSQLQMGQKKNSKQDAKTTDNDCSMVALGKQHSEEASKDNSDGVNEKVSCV
Glycine receptor, strychnine insensitive, sequence (P35439 394-800): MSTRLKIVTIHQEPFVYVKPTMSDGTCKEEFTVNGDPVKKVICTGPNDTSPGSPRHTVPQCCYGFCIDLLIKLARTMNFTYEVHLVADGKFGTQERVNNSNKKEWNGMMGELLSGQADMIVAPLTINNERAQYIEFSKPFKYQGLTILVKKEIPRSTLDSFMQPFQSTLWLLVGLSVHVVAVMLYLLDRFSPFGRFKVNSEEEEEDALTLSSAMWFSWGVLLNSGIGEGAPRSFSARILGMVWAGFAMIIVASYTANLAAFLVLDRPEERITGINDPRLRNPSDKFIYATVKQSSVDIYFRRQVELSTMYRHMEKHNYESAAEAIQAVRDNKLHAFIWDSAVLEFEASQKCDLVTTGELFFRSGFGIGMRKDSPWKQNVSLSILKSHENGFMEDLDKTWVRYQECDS
T9 sequence (P08588 whole entry): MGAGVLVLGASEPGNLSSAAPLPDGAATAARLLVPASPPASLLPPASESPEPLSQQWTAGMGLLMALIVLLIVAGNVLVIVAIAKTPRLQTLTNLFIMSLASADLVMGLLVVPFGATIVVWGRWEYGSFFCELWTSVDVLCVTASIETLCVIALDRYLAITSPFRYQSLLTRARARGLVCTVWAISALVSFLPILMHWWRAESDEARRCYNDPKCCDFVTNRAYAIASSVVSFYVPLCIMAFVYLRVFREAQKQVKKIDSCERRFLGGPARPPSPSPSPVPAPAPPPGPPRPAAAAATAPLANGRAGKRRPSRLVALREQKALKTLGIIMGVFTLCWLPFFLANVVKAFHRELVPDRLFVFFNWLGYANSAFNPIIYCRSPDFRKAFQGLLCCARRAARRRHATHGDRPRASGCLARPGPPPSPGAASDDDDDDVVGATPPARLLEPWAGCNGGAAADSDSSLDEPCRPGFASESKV
T2 sequence (P43088 whole entry): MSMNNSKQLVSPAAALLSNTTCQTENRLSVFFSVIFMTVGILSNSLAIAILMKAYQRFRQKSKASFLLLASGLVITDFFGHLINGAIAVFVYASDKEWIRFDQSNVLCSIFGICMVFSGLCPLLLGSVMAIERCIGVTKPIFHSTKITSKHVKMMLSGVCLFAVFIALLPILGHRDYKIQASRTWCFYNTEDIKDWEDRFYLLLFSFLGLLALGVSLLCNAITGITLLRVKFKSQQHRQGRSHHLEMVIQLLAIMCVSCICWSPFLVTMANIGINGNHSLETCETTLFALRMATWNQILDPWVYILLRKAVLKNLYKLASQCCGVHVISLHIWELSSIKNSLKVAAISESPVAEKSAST
T1 sequence (P23975 whole entry): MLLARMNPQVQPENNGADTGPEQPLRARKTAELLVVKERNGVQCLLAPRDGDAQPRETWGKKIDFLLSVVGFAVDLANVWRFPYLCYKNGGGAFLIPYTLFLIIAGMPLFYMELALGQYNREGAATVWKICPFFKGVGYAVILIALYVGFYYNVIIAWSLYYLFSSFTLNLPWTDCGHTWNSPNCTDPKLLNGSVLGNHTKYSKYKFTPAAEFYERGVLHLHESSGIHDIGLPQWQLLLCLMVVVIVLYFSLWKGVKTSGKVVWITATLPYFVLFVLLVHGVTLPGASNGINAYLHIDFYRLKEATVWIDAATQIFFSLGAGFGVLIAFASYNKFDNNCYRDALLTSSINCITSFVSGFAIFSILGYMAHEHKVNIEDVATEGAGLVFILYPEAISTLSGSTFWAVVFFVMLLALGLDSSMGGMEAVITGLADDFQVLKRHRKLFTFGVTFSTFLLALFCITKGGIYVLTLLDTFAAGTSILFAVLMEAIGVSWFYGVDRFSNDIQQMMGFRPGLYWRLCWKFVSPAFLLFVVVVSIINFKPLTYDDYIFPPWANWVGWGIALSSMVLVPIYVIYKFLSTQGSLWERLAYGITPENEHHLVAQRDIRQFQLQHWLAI
T3 sequence (P03372 whole entry): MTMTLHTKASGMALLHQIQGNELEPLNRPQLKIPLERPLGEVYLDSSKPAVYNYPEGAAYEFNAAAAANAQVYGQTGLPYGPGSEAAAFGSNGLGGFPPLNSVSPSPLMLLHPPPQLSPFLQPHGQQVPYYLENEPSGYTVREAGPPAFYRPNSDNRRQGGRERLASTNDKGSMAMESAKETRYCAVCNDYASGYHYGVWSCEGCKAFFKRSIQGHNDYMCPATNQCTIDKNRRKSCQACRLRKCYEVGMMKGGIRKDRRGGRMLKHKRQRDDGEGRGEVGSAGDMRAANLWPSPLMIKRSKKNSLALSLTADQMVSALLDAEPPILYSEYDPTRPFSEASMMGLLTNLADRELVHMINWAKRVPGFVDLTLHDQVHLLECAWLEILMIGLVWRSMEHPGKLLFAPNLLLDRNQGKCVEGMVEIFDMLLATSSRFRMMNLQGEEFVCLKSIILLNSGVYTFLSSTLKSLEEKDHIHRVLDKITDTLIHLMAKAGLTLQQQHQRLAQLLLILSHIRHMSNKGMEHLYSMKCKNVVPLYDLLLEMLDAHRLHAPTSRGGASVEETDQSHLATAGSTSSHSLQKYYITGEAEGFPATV

Compound	inhibition at 10 µM ([1]; 10 µM, duplicates)	inhibition at 10 µM (Prostaglandin F receptor; 10 µM, duplicates)	inhibition at 10 µM (Estrogen receptor alpha; 10 µM, duplicates)	inhibition at 10 µM (5HT2B; 10 µM, duplicates)	inhibition at 10 µM (Glucocorticoid receptor; 10 µM, duplicates)	inhibition at 10 µM (Muscarinic receptor M1; 10 µM, duplicates)	inhibition at 10 µM (5HT2A; 10 µM, duplicates)	inhibition at 10 µM (Muscarinic receptor M2; 10 µM, duplicates)	inhibition at 10 µM (Beta1-adrenoreceptor; 10 µM, duplicates)	inhibition at 10 µM (Adenosine A3 respetor; 10 µM, duplicates)	inhibition at 10 µM [2]	inhibition at 10 µM [1]	inhibition at 10 µM (Prostaglandin F receptor)	inhibition at 10 µM (Estrogen receptor alpha)	inhibition at 10 µM (5HT2B)	inhibition at 10 µM (Glucocorticoid receptor)	inhibition at 10 µM (Muscarinic receptor M1)	inhibition at 10 µM (5HT2A)	inhibition at 10 µM (Muscarinic receptor M2)	inhibition at 10 µM (Beta1-adrenoreceptor)	other results
CN1C(=O)[C@H](CCCN)NC(=O)[C@H](CCCN)NCc2ccccc2Sc2ccccc2CNC(=O)[C@@H]1Cc1c[nH]c2ccccc12 [RO7036668]	43%	2%	24%	27%	3%	26%	-2%	14%	12%	32%	-27%										
CN1C(=O)[C@H](CCCCN)NC(=O)[C@H](CCCN)NCc2cccnc2Sc2c(Cl)ccc(Cl)c2CNC(=O)[C@@H]1Cc1c[nH]c2ccccc12 [RO7075573]											-29%	1%	-4%	-3%	1%	9%	20%	-17%	11%	-2%	inhibition at 10 µM (Adenosine A3 respetor): 11%
CN1C(=O)[C@H](CCCCN)NC(=O)[C@H](CCCN)NCc2cccnc2Sc2c(Cl)ccc(-c3ccc(C(=O)O)cc3)c2CNC(=O)[C@@H]1Cc1c[nH]c2ccccc12 [RO7202110]	14%	-3%	-7%	14%	9%	-6%	4%	-1%	-2%	9%	-25%										
CN1C(=O)[C@H](CCCCN)NC(=O)[C@H](CCCN)NCc2cccnc2Sc2cccc(-c3ccc(C(=O)O)cc3)c2CNC(=O)[C@@H]1Cc1c[nH]c2ccccc12 [zosurabalpin]											15%	12%	5%	7%	-1%	-1%	-3%	3%	17%	10%	inhibition at 10 µM (Adenosine A3 respetor): 2%
